Data on 35 compounds can be found in US12129237B2, “Substituted diaminocarboxamide and diaminocarbonitrile pyrimidines, compositions thereof, and methods of treatment therewith” (SIGNAL PHARMACEUTICALS, LLC, priority 2011, dated 2024).

In one assay the target is T1, JNK1 (Homo sapiens, UniProt P45983).
T1 construct: purchased Carna Biosciences
T1 sequence (P45983 whole entry): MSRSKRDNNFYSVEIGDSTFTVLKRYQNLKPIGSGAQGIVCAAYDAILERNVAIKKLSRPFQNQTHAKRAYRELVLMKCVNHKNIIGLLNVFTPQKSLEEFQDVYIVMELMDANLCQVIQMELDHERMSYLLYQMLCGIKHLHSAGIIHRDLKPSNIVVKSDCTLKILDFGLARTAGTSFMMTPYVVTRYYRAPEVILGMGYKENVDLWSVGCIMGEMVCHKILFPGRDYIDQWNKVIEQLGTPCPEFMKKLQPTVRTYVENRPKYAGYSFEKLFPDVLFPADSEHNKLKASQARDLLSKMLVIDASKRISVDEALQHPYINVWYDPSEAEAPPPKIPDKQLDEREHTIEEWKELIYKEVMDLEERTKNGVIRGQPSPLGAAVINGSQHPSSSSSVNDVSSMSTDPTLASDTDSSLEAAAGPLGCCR
The assay can be described thus: JNK1 biochemical assays (one or more of: time resolved fluorescence, Z'-LYTE Cascade, radioactive). Particulars: one or more of the JNK1 biochemical assays; read-out: Act. Level (JNK1 IC50 activity level).
Protocol: JNK1 Assay. A 384-well time resolved fluorescence assay was used to monitor JNK1 activity. The JNK1 assay was run in the following assay buffer: 50 mM HEPES, 10 mM MgCl2, 1 mM EGTA, 2 mM DTT, and 0.01% Tween 20. To initiate the reaction 100 nM of ULight™-labeled 4EBP1 peptide (Perkin-Elmer) and 5 μM of ATP were mixed with 500 pM of JNK1 (Carna Biosciences), for a total assay volume of 20 μL in each well. The assay was incubated at room temperature for 1 h and terminated using a mixture of 30 mM EDTA and 4 nM Eu-anti-4EBP1, by adding 20 μL of stop solution to each well. Plates were read on a Perkin-Elmer Envision Reader.
JNK1 Assay. The JNK1 Z′-LYTE® Cascade kinase assay was run in the following buffer: 50 mM HEPES at pH 7.5, 0.01% BRIJ-35, 10 mM MgCl2, 1 mM EGTA, and 1 mM DTT. […] The assay was incubated at room temperature for 1 h. […] The data was then read on a fluorescence plate reader and analyzed.
JNK1 assay. The radioactive JNK kinase assay was carried out in a 96-well plate format at a final volume of 100 μL. […] JNK1 was diluted in the following dilution buffer (20 mM HEPES pH 7.6, 0.1 mM EDTA, 2.5 mM MgCl2, 0.004% (w/v) Triton X100, 2 μg/ml Leupeptin, 20 mM B-glycerol phosphate, 0.1 mM Na3VO4 dithiothreitol) and then pre-mixed with cJun diluted in the substrate solution buffer (20 mM HEPES pH 7.6, 50 mM NaCl, 0.1 mM EDTA, 2.5 mM MgCl2, 0.05% (w/v) Triton X100). […] The enzyme, substrate and inhibitor mixture was allowed to equilibrate at room temperature for 15 minutes. The reaction was started by the addition of 10 μL of 10×ATP in kinase buffer (130 mM MgCl2, 6 mM dithiothreitol, 150 mM para-nitrophenyl phosphate, 100 μCi/ml γ-[^33P]-ATP). Reactions were allowed to proceed for 60 minutes before precipitation of protein via trichloroacetic acid (7.2% TCA final). […] The precipitate was washed with Phosphate Buffered Saline and the amount of phosphate incorporated into cJun was quantified by scintillation counting using a Packard Topcount-NXT. All assays were conducted under conditions where phosphate incorporation was linear with respect to time and enzyme concentration.
As to `CC[C@H](C)Nc1ncc(C(N)=O)c(N[C@@H]2CCC[C@H](O)C2)n1` [Example 496, 2-(sec-butylamino)-4-((1R,3S)-3-hydroxycyclohexylamino)pyrimidine-5-carboxamide], the IC50 (commonly the concentration needed to halve the response being measured) was < 0.2 µM.

For the compound `CC[C@@H](C)Nc1ncc(C(N)=O)c(N[C@@H]2CCC[C@H](O)C2)n1` [Example 497, 2-(sec-butylamino)-4-((1R,3S)-3-hydroxycyclohexylamino)pyrimidine-5-carboxamide], the IC50 was < 0.2 µM.

`CCC(CC)Nc1ncc(C(N)=O)c(N[C@@H]2CCC[C@H](O)C2)n1` [Example 498, 4-((1R,3S)-3-hydroxycyclohexylamino)-2-(pentan-3-ylamino)pyrimidine-5-carboxamide]: the IC50 is < 0.2 µM.

Staying with this assay, now noted: tested in one or more of the JNK1 biochemical assays; read-out: Act. Level (JNK1 biochemical assay IC50 activity level).
On to `CC(C)Nc1nc(N[C@H]2CC[C@H](OCC(F)(F)F)CC2)ncc1C(N)=O` [Example A-1, 4-(isopropylamino)-2-((1r,4r)-4-(2,2,2-trifluoroethoxy)cyclohexylamino)pyrimidine-5-carboxamide], for which the IC50 was < 0.2 µM.

`CC(C)Nc1nc(NC2CCC(F)(F)CC2)ncc1C(N)=O` [Example A-3, 2-(4,4-difluorocyclohexylamino)-4-(isopropylamino)pyrimidine-5-carboxamide]: the IC50 was < 0.2 µM.

Turning to `NC(=O)c1cnc(N[C@H]2CC[C@H](OC(F)F)CC2)nc1N[C@@H]1CCC[C@H]1O` [Example A-4, 2-((1r,4R)-4-(difluoromethoxy)cyclohexylamino)-4-((1R,2R)-2-hydroxycyclopentylamino)pyrimidine-5-carboxamide], the concentration for half-maximal inhibition (IC50) was < 0.2 µM.

For the compound `NC(=O)c1cnc(NC2CCC(F)(F)CC2)nc1N[C@@H]1CCC[C@H]1O` [Example A-5, 2-(4,4-difluorocyclohexylamino)-4-((1R,2R)-2-hydroxycyclopentylamino)pyrimidine-5-carboxamide], the IC50 was < 0.2 µM.

On to `CC(C)Nc1nc(N[C@H]2CC[C@H](C(C)(C)O)CC2)ncc1C(N)=O` [Example A-6, 2-((1r,4r)-4-(2-hydroxypropan-2-yl)cyclohexylamino)-4-(isopropylamino)pyrimidine-5-carboxamide], for which the IC50 is < 0.2 µM.

Regarding `NC(=O)c1cnc(NC2CCOCC2)nc1N[C@@H]1CCC[C@H]1O` [Example A-7, 4-((1R,2R)-2-hydroxycyclopentylamino)-2-(tetrahydro-2H-pyran-4-ylamino)pyrimidine-5-carboxamide], the 50% inhibitory concentration (IC50) was < 0.2 µM.

As to `CC(C)Nc1nc(N[C@H]2CC[C@H](C(=O)N(C)C)CC2)ncc1C(N)=O` [Example A-10, 2-((1r,4r)-4-(dimethylcarbamoyl)cyclohexylamino)-4-(isopropylamino)pyrimidine-5-carboxamide], the IC50 was < 0.2 µM.

Turning to `CC(C)Nc1nc(NC2CCC3(CC2)OCCO3)ncc1C(N)=O` [Example A-11, 2-(1,4-dioxaspiro[4.5]decan-8-ylamino)-4-(isopropylamino)pyrimidine-5-carboxamide], the IC50 was in the range of 0.2 to 0.8 µM.

In the case of `CC(C)Nc1nc(N[C@H]2CC[C@H](CO)CC2)ncc1C(N)=O` [Example A-12, 2-((1r,4r)-4-(hydroxymethyl)cyclohexylamino)-4-(isopropylamino)pyrimidine-5-carboxamide], the IC50 is < 0.2 µM.

Consider `CO[C@H]1CC[C@H](Nc2ncc(C(N)=O)c(NC3COCC(O)C3)n2)CC1` (some centres unmarked) [Example A-13, 4-(5-hydroxytetrahydro-2H-pyran-3-ylamino)-2-((1r,4r)-4-methoxycyclohexylamino)pyrimidine-5-carboxamide], for which the IC50 was < 0.2 µM.

For the compound `C[C@]1(O)CC[C@H](Nc2ncc(C(N)=O)c(N[C@@H]3CCC[C@H](O)C3)n2)CC1` [Example A-22, 2-((1r,4R)-4-hydroxy-4-methylcyclohexylamino)-4-((1R,3S)-3-hydroxycyclohexylamino)pyrimidine-5-carboxamide], the IC50 was < 0.2 µM.

Take `CO[C@H]1CC[C@H](Nc2ncc(C(N)=O)c(N[C@H]3CCNC(=O)C3)n2)CC1` [Example A-25, 2-((1r,4S)-4-methoxycyclohexylamino)-4-((S)-2-oxopiperidin-4-ylamino)pyrimidine-5-carboxamide]: the IC50 is < 0.2 µM.

On to `CO[C@H]1CC[C@H](Nc2ncc(C(N)=O)c(N[C@@H]3CCNC(=O)C3)n2)CC1` [Example A-26, 2-((1r,4R)-4-methoxycyclohexylamino)-4-((R)-2-oxopiperidin-4-ylamino)pyrimidine-5-carboxamide], for which the IC50 lay within 0.2 to 0.8 µM.

Regarding `CN(C)C(=O)[C@H]1CC[C@H](Nc2ncc(C(N)=O)c(N[C@@H]3CCC[C@H](O)C3)n2)CC1` [Example A-27, 2-((1r,4R)-4-(dimethylcarbamoyl)cyclohexylamino)-4-((1R,3S)-3-hydroxycyclohexylamino)pyrimidine-5-carboxamide], the IC50 was < 0.2 µM.

For `CO[C@H]1CC[C@H](Nc2ncc(C(N)=O)c(N[C@H]3CC[C@H](O)CC3)n2)CC1` [Example A-34, 4-((1r,4r)-4-hydroxycyclohexylamino)-2-((1r,4r)-4-methoxycyclohexylamino)pyrimidine-5-carboxamide], the IC50 was < 0.2 µM.

Consider `CO[C@H]1CC[C@H](Nc2ncc(C(N)=O)c(NC(C)(C)CCO)n2)CC1` [Example A-35, 4-(4-hydroxy-2-methylbutan-2-ylamino)-2-((1r,4r)-4-methoxycyclohexylamino)pyrimidine-5-carboxamide], for which the IC50 is < 0.2 µM.

With `CO[C@H]1CC[C@H](Nc2ncc(C(N)=O)c(N[C@@H]3CCC[C@@H]3CO)n2)CC1` [Example A-36, 4-((1R,2S)-2-(hydroxymethyl)cyclopentylamino)-2-((1r,4R)-4-methoxycyclohexylamino)pyrimidine-5-carboxamide], the IC50 is < 0.2 µM.

On to `CO[C@H]1CC[C@H](Nc2ncc(C(N)=O)c(N[C@H]3CCC[C@H]3CO)n2)CC1` [Example A-37, 4-((1S,2R)-2-(hydroxymethyl)cyclopentylamino)-2-((1r,4S)-4-methoxycyclohexylamino)pyrimidine-5-carboxamide], for which the IC50 is 0.2 to 0.8 µM.

Take `CO[C@H]1CC[C@H](Nc2ncc(C(N)=O)c(N[C@H]3CC[C@H](NC(C)=O)CC3)n2)CC1` [Example A-38, 4-((1r,4r)-4-acetamidocyclohexylamino)-2-((1r,4r)-4-methoxycyclohexylamino)pyrimidine-5-carboxamide]: the IC50 is < 0.2 µM.

For `CC(=O)N[C@H]1CC[C@H](Nc2ncc(C(N)=O)c(N[C@@H]3CCC[C@H](O)C3)n2)CC1` [Example A-39, 2-((1r,4R)-4-acetamidocyclohexylamino)-4-((1R,3S)-3-hydroxycyclohexylamino)pyrimidine-5-carboxamide], the IC50 was < 0.2 µM.

For the compound `CO[C@H]1CC[C@H](Nc2ncc(C(N)=O)c(N[C@@H]3CC[C@H](O)C3)n2)CC1` [Example A-46, 4-((1R,3S)-3-hydroxycyclopentylamino)-2-((1r,4R)-4-methoxycyclohexylamino)pyrimidine-5-carboxamide], the IC50 is < 0.2 µM.

As for `CO[C@H]1CC[C@H](Nc2ncc(C(N)=O)c(N[C@@H]3CCCNC3)n2)CC1` [Example A-47, 2-((1r,4R)-4-methoxycyclohexylamino)-4-((R)-piperidin-3-ylamino)pyrimidine-5-carboxamide], the IC50 is < 0.2 µM.

As for `CO[C@H]1CC[C@H](Nc2ncc(C(N)=O)c(N[C@H]3CCCNC3)n2)CC1` [Example A-48, 2-((1r,4S)-4-methoxycyclohexylamino)-4-((S)-piperidin-3-ylamino)pyrimidine-5-carboxamide], the IC50 lay in the range of 0.8 to 1 µM.

For the compound `CN[C@H]1CC[C@H](Nc2ncc(C(N)=O)c(N[C@@H]3CCC[C@H](O)C3)n2)CC1` [Example A-49, 4-((1R,3S)-3-hydroxycyclohexylamino)-2-((1r,4R)-4-(methylamino)cyclohexylamino)pyrimidine-5-carboxamide], the IC50 was < 0.2 µM.

In the case of `NC(=O)c1cnc(N[C@@H]2CCCOC2)nc1N[C@@H]1CCC[C@H](O)C1` [Example A-50, 4-((1R,3S)-3-hydroxycyclohexylamino)-2-((R)-tetrahydro-2H-pyran-3-ylamino)pyrimidine-5-carboxamide], the IC50 was < 0.2 µM.

As to `CC(C)Nc1ncc(C(N)=O)c(N[C@@H]2CCC[C@H](O)C2)n1` [Example A-51, 4-((1R,3S)-3-hydroxycyclohexylamino)-2-(isopropylamino)pyrimidine-5-carboxamide], the IC50 was < 0.2 µM.

`NC(=O)c1cnc(N[C@H]2CCCOC2)nc1N[C@@H]1CCC[C@H](O)C1` [Example A-52, 4-((1R,3S)-3-hydroxycyclohexylamino)-2-((S)-tetrahydro-2H-pyran-3-ylamino)pyrimidine-5-carboxamide]: the IC50 is < 0.2 µM.

For the compound `CO[C@H]1CC[C@H](Nc2ncc(C(N)=O)c(NC3CCOCC3)n2)CC1` [Example A-55, 2-((1r,4r)-4-methoxycyclohexylamino)-4-(tetrahydro-2H-pyran-4-ylamino)pyrimidine-5-carboxamide], the IC50 was in the range of 0.2 to 0.8 µM.

As to `CNC(=O)[C@H]1CC[C@H](Nc2ncc(C(N)=O)c(N[C@@H]3CCC[C@H](O)C3)n2)CC1` [Example A-56, 4-((1R,3S)-3-hydroxycyclohexylamino)-2-((1r,4R)-4-(methylcarbamoyl)cyclohexylamino)pyrimidine-5-carboxamide], the IC50 is < 0.2 µM.

Consider `NC(=O)c1cnc(NC2CCOCC2)nc1N[C@@H]1CCC[C@H](O)C1` [Example A-57, 4-((1R,3S)-3-hydroxycyclohexylamino)-2-(tetrahydro-2H-pyran-4-ylamino)pyrimidine-5-carboxamide], for which the 50% inhibitory concentration (IC50) is < 0.2 µM.

For the compound `CCO[C@H]1CC[C@H](Nc2ncc(C(N)=O)c(NC3CCC[C@H](O)C3)n2)CC1` (stereo partly drawn) [Example A-58, 2-((1r,4R)-4-ethoxycyclohexylamino)-4-((1R,3S)-3-hydroxycyclohexylamino)pyrimidine-5-carboxamide], the IC50 was < 0.2 µM.

Turning to `CCO[C@H]1CC[C@H](Nc2ncc(C(N)=O)c(N[C@H]3CCC[C@@H](O)C3)n2)CC1` [Example A-59, 2-((1r,4S)-4-ethoxycyclohexylamino)-4-((1S,3R)-3-hydroxycyclohexylamino)pyrimidine-5-carboxamide], the IC50 was < 0.2 µM.
